The source of these data is ChEMBL document CHEMBL3046049, “Protoporphyrinogen-IX Oxidase Inhibition by N-(2, 4, 5-Trisubstituted phenyl)-3, 4, 5, 6-tetrahydrophthalimides” (J Pestic Sci, 1997).

For one test, the system named is Scenedesmus acutus. Nature of the test: Inhibition of light-induced ethane formation in Scenedesmus acutus after 20 hr. The test is classed as functional, organism-based. To be noted: read-out: pI50 (converted).
In test [1] the target is T1, Protoporphyrinogen IX oxidase (Zea mays, UniProt Q9FYV8).
T1 sequence (Q9FYV8 whole entry): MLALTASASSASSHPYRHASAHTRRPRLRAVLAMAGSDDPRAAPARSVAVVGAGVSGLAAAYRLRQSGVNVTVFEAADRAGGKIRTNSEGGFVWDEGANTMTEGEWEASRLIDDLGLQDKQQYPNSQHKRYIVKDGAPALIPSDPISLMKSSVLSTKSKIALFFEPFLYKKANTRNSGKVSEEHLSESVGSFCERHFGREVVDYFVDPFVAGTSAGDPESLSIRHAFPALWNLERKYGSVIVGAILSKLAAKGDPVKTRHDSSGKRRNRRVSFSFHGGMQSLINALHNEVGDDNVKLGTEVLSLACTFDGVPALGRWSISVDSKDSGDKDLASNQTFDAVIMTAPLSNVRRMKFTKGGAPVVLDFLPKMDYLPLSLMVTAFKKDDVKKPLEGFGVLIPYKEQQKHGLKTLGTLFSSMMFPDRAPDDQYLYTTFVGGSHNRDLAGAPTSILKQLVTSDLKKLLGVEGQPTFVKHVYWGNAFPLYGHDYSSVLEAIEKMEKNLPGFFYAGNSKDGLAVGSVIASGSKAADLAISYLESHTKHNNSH
Put plainly: Inhibition of protoporphyrinogen IX oxidase in Zea mays (maize) seed after 5 min by Dixon plot analysis. The settings on record: read-out: pI50 (converted).

As for `CC(C)=C1OC(=O)N(c2cc(OC3CCCC3)c(Cl)cc2F)C1=O` [PENTOXAZONE], the IC50 is 631 nM in the test with Scenedesmus acutus and 5.25 nM in test [1].

Turning to `C#CC(C)Oc1cc(N2C(=O)C3=C(CCCC3)C2=O)c(F)cc1Cl` (configuration not stated) [FLUMIPROPYN], the values for the IC50 (with Scenedesmus acutus; in test [1]) were 105 nM and 1 nM, respectively.

Regarding `COC(=O)CSc1cc(/N=c2\sc(=O)n3n2CCCC3)c(F)cc1Cl` [FLUTHIACETMETHYL], the IC50 with Scenedesmus acutus was 955 nM; in test [1], 47.9 nM.

With `C#CCN1C(=O)COc2ccc(N3C(=O)C4=C(CCCC4)C3=O)cc21`, the IC50 in the test on Scenedesmus acutus was 631 nM; in test [1] it was 1 nM.

Turning to `O=C1C2=C(CCCC2)C(=O)N1c1ccc(Cl)cc1` [CHLOROPHTHALIUM], the IC50 in the test on Scenedesmus acutus is 1000 nM; in test [1], 25.1 nM.

As for `O=C1C2=C(CCCC2)C(=O)N1c1ccccc1F`, the values for the IC50 (in the test with Scenedesmus acutus; in test [1]) were 10000 nM and 2510 nM, respectively.

On to `C#CCOc1cc(N2C(=O)C3=C(CCCC3)C2=O)c(F)cc1Cl`, for which the IC50 was 126 nM in the test with Scenedesmus acutus and 2 nM in test [1].

For the compound `C#CCOc1cc(N2C(=O)C3=C(CCCC3)C2=O)ccc1Cl`, the results for the IC50 (in the test on Scenedesmus acutus; in test [1]) were 501 nM and 0.398 nM, respectively.

Turning to `C#CCOc1cc(-n2nc3c(c2Cl)CCCC3)c(F)cc1Cl`, the IC50 in test [1] was 1 nM.

For `C#CCN1C(=O)COc2cc(F)c(N3C(=O)C4=C(CCCC4)C3=O)cc21` [FLUMIOXAZIN], the IC50 in the test on Scenedesmus acutus is 316 nM.

With `CC(C)OC(=O)c1cc(N2C(=O)C3=C(CCCC3)C2=O)c(F)cc1Cl`, the IC50 in the test with Scenedesmus acutus is 79.4 nM; in test [1], 1.26 nM.

In the case of `O=C1C2=C(CCCC2)C(=O)N1c1ccccc1`, the IC50 in the test with Scenedesmus acutus was 10000 nM; in test [1], 1580 nM.

For `CCCCCOC(=O)COc1cc(N2C(=O)C3=C(CCCC3)C2=O)c(F)cc1Cl` [FLUMICIORAC-PENTYL], the IC50 in test [1] is 1.1 nM.

`CC(C)OC(=O)c1cc(N2C(=O)C3=C(CCCC3)C2=O)ccc1Cl`: the IC50 was 200 nM in the test on Scenedesmus acutus and 1 nM in test [1].

`O=C1C2=C(CCCC2)C(=O)N1c1ccc(Cl)cc1F`: the IC50 was 251 nM in the test with Scenedesmus acutus and 3.98 nM in test [1].
